Assay results from the NIST ThermoML archive (doi:10.1016/j.jct.2016.10.031).

Experiment: molar heat capacity at constant pressure
Settings: 101.33 kPa, Small (less than 1 g) adiabatic calorimetry

CC(C)(C)c1ccc(Oc2ccc([N+](=O)[O-])cc2)cc1 [1-(tert-butyl)-4-(4-nitrophenoxy)benzene]
Settings	molar heat capacity at constant pressure [J/K/mol]
5 K, Crystal	1.355
7.47 K, Crystal	4.099
7.73 K, Crystal	4.357
7.99 K, Crystal	4.806
8.25 K, Crystal	4.93
8.5 K, Crystal	5.379
8.76 K, Crystal	5.679
9 K, Crystal	6.111
9.25 K, Crystal	6.543
9.5 K, Crystal	6.718
9.74 K, Crystal	6.934
9.98 K, Crystal	7.616
10 K, Crystal	7.483
10.29 K, Crystal	7.94
10.67 K, Crystal	8.647
11.05 K, Crystal	9.237
11.43 K, Crystal	9.903
11.82 K, Crystal	10.72
12.19 K, Crystal	11.55
12.56 K, Crystal	12.15
12.94 K, Crystal	12.7
13.31 K, Crystal	13.57
13.67 K, Crystal	14.33
14.04 K, Crystal	15.21
14.41 K, Crystal	15.49
14.78 K, Crystal	16.59
15 K, Crystal	16.88
15.14 K, Crystal	17.38
15.51 K, Crystal	17.73
15.87 K, Crystal	18.62
16.23 K, Crystal	19.3
16.59 K, Crystal	20.01
16.95 K, Crystal	20.59
17.31 K, Crystal	21.22
17.67 K, Crystal	21.96
18.02 K, Crystal	23.17
18.38 K, Crystal	23.47
18.74 K, Crystal	23.92
19.09 K, Crystal	24.86
19.44 K, Crystal	25.53
19.8 K, Crystal	26.14
20 K, Crystal	26.69
20.15 K, Crystal	27.16
20.82 K, Crystal	28.34
21.6 K, Crystal	29.77
22.37 K, Crystal	31.32
23.15 K, Crystal	32.68
23.93 K, Crystal	34.2
24.7 K, Crystal	35.79
25 K, Crystal	36.33
25.47 K, Crystal	37.61
26.25 K, Crystal	38.45
27.02 K, Crystal	40.22
27.78 K, Crystal	41.32
28.55 K, Crystal	43.04
29.31 K, Crystal	44.42
30 K, Crystal	45.73
30.07 K, Crystal	45.76
30.84 K, Crystal	47.58
31.6 K, Crystal	48.75
32.37 K, Crystal	49.72
33.14 K, Crystal	51.08
33.9 K, Crystal	52.67
34.66 K, Crystal	54.05
35 K, Crystal	54.54
35.42 K, Crystal	55.3
36.18 K, Crystal	57.11
36.94 K, Crystal	57.85
37.7 K, Crystal	58.97
38.45 K, Crystal	60.6
39.21 K, Crystal	61.49
39.97 K, Crystal	62.88
40 K, Crystal	63.11
40.73 K, Crystal	64.39
41.49 K, Crystal	65.82
42.25 K, Crystal	66.47
43.01 K, Crystal	68.18
43.76 K, Crystal	69.21
44.52 K, Crystal	70.63
45 K, Crystal	71.17
45.29 K, Crystal	71.91
46.05 K, Crystal	72.64
46.81 K, Crystal	73.61
47.56 K, Crystal	75.02
48.32 K, Crystal	75.74
49.08 K, Crystal	77.04
49.84 K, Crystal	77.52
50 K, Crystal	77.91
50.59 K, Crystal	79.05
51.35 K, Crystal	79.22
52.11 K, Crystal	79.8
52.86 K, Crystal	81.65
53.62 K, Crystal	82.43
54.38 K, Crystal	83.39
55.13 K, Crystal	84.31
55.89 K, Crystal	84.81
56.64 K, Crystal	85.14
57.4 K, Crystal	86.3
58.15 K, Crystal	87.8
58.9 K, Crystal	88.13
59.65 K, Crystal	89.46
60 K, Crystal	89.55
60.41 K, Crystal	89.8
61.16 K, Crystal	91.13
61.91 K, Crystal	92.37
62.66 K, Crystal	92.46
63.41 K, Crystal	94.04
64.16 K, Crystal	94.87
64.91 K, Crystal	94.78
65.66 K, Crystal	96.12
66.41 K, Crystal	96.12
67.16 K, Crystal	97.94
67.91 K, Crystal	97.94
68.65 K, Crystal	99.44
69.4 K, Crystal	100.27
70 K, Crystal	101.19
70.15 K, Crystal	102.77
71.05 K, Crystal	102.93
72.11 K, Crystal	103.85
73.17 K, Crystal	104.93
74.23 K, Crystal	106.18
75.29 K, Crystal	108.42
76.35 K, Crystal	108.75
77.41 K, Crystal	110.08
78.47 K, Crystal	112
79.3 K, Crystal	112.16
79.53 K, Crystal	113.49
79.87 K, Glass	115.9
80 K, Crystal	113.16
80.1 K, Crystal	112.83
80.58 K, Crystal	114.66
80.67 K, Glass	116.65
80.9 K, Crystal	113.82
81.47 K, Glass	117.4
81.64 K, Crystal	116.15
81.71 K, Crystal	114.66
82.27 K, Glass	118.31
82.51 K, Crystal	115.4
82.7 K, Crystal	116.82
83.08 K, Glass	119.23
83.31 K, Crystal	116.49
83.75 K, Crystal	117.48
83.88 K, Glass	120.06
84.11 K, Crystal	117.32
84.68 K, Glass	120.98
84.92 K, Crystal	118.07
85.48 K, Glass	121.97
85.72 K, Crystal	119.06
86.29 K, Glass	122.89
86.52 K, Crystal	119.98
87.09 K, Glass	123.8
87.32 K, Crystal	120.81
87.89 K, Glass	124.55
